Assay results published in publication PMC4102434 (Biochemical pharmacology, 2012).

Experiments:
Type in all cases: biochemical
ces1d [1] = target: T1, ces1d (Rattus norvegicus, UniProt P16303); assay: p-nitrophenylacetate hydrolysis, absorbance at […] nm; details: read-out: % inhibition at 10 nM
T1 sequence (P16303 19-565): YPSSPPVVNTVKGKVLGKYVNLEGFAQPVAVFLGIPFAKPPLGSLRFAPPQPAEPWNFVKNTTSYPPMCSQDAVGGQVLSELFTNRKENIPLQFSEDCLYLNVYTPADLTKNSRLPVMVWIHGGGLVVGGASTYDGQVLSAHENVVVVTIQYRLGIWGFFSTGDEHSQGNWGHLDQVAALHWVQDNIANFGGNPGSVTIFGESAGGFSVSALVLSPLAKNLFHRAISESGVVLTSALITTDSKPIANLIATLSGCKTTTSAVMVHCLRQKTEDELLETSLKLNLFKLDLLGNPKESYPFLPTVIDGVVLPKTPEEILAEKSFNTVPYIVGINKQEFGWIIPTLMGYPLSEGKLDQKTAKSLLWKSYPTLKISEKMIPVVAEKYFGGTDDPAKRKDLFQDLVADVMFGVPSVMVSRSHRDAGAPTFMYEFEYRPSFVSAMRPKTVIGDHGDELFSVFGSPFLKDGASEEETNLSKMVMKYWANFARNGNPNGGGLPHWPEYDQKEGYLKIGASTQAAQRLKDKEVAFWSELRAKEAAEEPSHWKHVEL

ces2e [2] = target: T2, ces2e (Mus musculus, UniProt Q8BK48); assay: as above; details: read-out: % inhibition at 1 nM
T2 sequence (Q8BK48 27-559): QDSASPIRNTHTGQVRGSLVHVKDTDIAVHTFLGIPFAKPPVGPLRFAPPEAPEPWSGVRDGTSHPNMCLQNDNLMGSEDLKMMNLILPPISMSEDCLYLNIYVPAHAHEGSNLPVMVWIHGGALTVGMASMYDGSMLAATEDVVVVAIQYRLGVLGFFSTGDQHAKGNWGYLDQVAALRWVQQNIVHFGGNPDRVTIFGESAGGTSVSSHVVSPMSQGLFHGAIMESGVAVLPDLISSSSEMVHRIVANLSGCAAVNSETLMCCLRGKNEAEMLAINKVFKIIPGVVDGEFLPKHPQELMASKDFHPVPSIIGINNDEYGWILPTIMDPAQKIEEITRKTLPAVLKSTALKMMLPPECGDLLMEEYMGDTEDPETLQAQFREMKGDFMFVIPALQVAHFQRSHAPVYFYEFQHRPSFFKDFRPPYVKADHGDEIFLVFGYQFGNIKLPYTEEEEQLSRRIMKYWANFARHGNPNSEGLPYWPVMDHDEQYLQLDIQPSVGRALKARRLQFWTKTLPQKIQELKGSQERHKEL

ces1d [3] = target: T3, ces1d (Mus musculus, UniProt Q8VCT4); assay: as above; details: read-out: % inhibition at 1 nM
T3 sequence (Q8VCT4 19-565): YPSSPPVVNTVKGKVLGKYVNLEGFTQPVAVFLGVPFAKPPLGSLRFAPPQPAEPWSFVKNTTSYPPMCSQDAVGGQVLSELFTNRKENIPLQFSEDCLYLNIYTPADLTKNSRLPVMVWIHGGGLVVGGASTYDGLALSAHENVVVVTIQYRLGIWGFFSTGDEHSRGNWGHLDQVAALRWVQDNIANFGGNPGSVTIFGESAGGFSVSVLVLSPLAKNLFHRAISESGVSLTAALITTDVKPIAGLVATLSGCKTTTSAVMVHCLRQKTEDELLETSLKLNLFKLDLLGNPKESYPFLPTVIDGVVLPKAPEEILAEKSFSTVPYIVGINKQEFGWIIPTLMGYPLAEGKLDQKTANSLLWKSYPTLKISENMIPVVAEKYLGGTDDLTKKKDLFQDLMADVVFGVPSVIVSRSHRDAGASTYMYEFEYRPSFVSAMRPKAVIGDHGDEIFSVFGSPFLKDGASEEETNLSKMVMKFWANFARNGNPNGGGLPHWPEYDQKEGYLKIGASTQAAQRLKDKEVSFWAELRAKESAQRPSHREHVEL

ces1e [4] = target: T4, ces1e (Rattus norvegicus, UniProt Q63108); assay: as above; details: read-out: % inhibition at 10 nM
T4 sequence (Q63108 19-561): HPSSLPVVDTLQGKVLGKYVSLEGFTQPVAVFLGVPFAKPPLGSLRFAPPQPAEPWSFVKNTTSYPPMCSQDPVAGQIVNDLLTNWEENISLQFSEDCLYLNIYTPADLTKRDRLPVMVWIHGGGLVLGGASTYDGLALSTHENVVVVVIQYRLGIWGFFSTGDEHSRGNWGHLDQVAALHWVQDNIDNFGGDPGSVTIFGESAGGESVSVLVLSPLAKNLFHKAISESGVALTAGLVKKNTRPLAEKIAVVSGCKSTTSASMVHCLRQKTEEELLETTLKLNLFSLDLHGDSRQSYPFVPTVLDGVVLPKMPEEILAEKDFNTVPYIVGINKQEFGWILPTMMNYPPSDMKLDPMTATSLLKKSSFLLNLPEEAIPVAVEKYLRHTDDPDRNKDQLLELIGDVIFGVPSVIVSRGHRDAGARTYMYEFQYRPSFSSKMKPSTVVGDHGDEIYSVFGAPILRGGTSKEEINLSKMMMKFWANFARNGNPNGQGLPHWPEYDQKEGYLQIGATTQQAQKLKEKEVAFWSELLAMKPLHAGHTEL

CES1 [5] = target: T5, CES1 (Homo sapiens, UniProt P23141); assay: as above; details: read-out: % inhibition at 100 nM
T5 sequence (P23141 18-567): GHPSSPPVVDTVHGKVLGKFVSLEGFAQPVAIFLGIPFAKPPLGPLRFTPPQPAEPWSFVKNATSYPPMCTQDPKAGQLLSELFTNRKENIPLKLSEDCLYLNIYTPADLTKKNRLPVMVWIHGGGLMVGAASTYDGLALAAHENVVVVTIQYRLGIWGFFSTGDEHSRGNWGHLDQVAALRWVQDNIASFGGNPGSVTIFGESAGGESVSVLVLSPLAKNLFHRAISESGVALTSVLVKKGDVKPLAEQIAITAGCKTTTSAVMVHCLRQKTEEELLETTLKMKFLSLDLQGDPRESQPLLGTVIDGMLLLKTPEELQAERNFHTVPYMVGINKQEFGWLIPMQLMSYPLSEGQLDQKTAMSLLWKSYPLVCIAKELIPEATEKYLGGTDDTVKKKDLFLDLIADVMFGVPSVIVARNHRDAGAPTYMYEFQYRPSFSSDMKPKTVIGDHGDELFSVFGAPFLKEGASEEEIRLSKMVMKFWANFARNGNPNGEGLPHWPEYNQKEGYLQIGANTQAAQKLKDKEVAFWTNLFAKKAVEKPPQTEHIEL

ces2c [6] = target: T6, ces2c (Mus musculus, UniProt Q91WG0); assay: as above; details: read-out: % inhibition at 1 nM
T6 sequence (Q91WG0 27-561): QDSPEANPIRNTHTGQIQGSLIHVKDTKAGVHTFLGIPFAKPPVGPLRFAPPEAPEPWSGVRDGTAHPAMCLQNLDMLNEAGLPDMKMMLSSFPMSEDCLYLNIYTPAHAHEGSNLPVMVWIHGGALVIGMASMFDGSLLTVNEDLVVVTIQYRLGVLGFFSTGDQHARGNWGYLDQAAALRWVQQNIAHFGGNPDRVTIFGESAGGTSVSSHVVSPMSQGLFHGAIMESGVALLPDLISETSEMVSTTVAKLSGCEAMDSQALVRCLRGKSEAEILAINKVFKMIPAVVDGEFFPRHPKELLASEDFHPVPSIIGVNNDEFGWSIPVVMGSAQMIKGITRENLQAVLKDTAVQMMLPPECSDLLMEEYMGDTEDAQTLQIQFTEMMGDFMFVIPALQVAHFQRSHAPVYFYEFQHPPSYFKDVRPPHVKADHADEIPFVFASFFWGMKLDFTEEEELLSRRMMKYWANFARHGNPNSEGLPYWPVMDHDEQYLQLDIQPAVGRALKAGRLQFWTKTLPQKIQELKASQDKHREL

CES2 = target: T7, CES2 (Homo sapiens, UniProt O00748); assay: hydrolysis, absorbance at […] nm; details: 293T lysate, potassium phosphate pH 7.4
T7 sequence (O00748 27-559): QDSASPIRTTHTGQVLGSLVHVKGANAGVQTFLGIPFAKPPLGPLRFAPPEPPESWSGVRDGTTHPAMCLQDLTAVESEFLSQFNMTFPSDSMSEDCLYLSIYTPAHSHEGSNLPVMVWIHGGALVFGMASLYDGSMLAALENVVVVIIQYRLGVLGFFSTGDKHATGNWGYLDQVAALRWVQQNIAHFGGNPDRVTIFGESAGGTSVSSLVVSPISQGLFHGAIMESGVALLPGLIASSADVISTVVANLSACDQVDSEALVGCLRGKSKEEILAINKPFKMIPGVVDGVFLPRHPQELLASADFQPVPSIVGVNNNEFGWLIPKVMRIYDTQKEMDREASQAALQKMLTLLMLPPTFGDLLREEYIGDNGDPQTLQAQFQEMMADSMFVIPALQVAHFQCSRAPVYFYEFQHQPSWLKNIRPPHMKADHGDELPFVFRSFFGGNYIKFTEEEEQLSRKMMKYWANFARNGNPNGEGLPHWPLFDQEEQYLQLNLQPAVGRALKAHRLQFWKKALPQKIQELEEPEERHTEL

ces1d [7] = target: T3, ces1d; assay: hydrolysis, absorbance at […] nm; details: 293T lysate, potassium phosphate pH 7.4
ces2e [8] = target: T2, ces2e; assay: hydrolysis, absorbance at […] nm; details: 293T lysate, potassium phosphate pH 7.4
ces2c [9] = target: T6, ces2c; assay: hydrolysis, absorbance at […] nm; details: 293T lysate, potassium phosphate pH 7.4
ces1d [10] = target: T1, ces1d; assay: hydrolysis, absorbance at […] nm; details: 293T lysate, potassium phosphate pH 7.4
CES1 [11] = target: T5, CES1; assay: hydrolysis, absorbance at […] nm; details: 293T lysate, potassium phosphate pH 7.4
ces1e [12] = target: T4, ces1e; assay: hydrolysis, absorbance at […] nm; details: 293T lysate, potassium phosphate pH 7.4

SMILES | inhibition at 0.01 µM (ces1d [1]) | inhibition at 0.001 µM (ces2e [2]) | inhibition at 0.001 µM (ces1d [3]) | inhibition at 0.01 µM (ces1e [4]) | inhibition at 0.1 µM (CES1 [5]) | inhibition at 0.001 µM (ces2c [6]) | hydrolysis, absorbance at 400 nm (CES2) | hydrolysis, absorbance at 400 nm (ces1d [7]) | hydrolysis, absorbance at 400 nm (ces2e [8]) | hydrolysis, absorbance at 400 nm (ces2c [9]) | hydrolysis, absorbance at 400 nm (ces1d [10]) | hydrolysis, absorbance at 400 nm (CES1 [11]) | hydrolysis, absorbance at 400 nm (ces1e [12])
CCCCCCCCCCC[C@@H](C[C@@H]1OC(=O)[C@H]1CCCCCC)OC(=O)[C@H](CC(C)C)NC=O [orlistat] | 20% | 55% | 12% | 20% | ~30% | 90% |  |  |  |  |  |  | 
CC(=O)Oc1ccc([N+](=O)[O-])cc1 [p-nitrophenylacetate] |  |  |  |  |  |  | Inhibition of p-nitrophenylacetate hydrolysis of recombinant carboxylesterases from human (A), mouse (B) or rat | Inhibition of p-nitrophenylacetate hydrolysis of recombinant carboxylesterases from human (A), mouse (B) or rat | Inhibition of p-nitrophenylacetate hydrolysis of recombinant carboxylesterases from human (A), mouse (B) or rat | Inhibition of p-nitrophenylacetate hydrolysis of recombinant carboxylesterases from human (A), mouse (B) or rat | Inhibition of p-nitrophenylacetate hydrolysis of recombinant carboxylesterases from human (A), mouse (B) or rat | Inhibition of p-nitrophenylacetate hydrolysis of recombinant carboxylesterases from human (A), mouse (B) or rat | Inhibition of p-nitrophenylacetate hydrolysis of recombinant carboxylesterases from human (A), mouse (B) or rat
